Assays:
CCR-2 = assay: Chemokine receptor expression on monocytes by flow cytometry: CCR-2; format: cell-based, human; details: for Mean fluorescent intensity -CCR-2 Mean +/− s.e.m.: CD14^+ monocytes, agonist 1 μM in the presence of 1.5 mM Ca^++
Method: (§1) Chemokine receptor expression and flow cytometric analysis.
Table 1: Exposure of CD14^+ monocytes to Ca^++ enhances CCR2 expression in a dose dependent manner. Monocytes were exposed to varying concentrations of Ca^++ and to the selective CaR activator, NPS R-467 (1 μM), or to NPS S-467 (1 μM) in the presence of 1.5 mM Ca^++. The median fluorescence intensity for CCR2 expression was measured for each Ca^++ concentration and in the presence of NPS R-467 or S-467. Mean values +/−s.e.m. from three independent experiments are shown.

CaR [1] = assay: CaR surface expression on monocytes after exposure to chemokines; format: cell-based, human; details: monocytes after chemokine stimulation; untreated 361+/−25
Text: as §1
In order to assess whether there was reciprocal regulation of the CaR by chemokine receptors, we evaluated CaR surface expression on cells before and after exposure to the chemokines, SDF-1α or MCP-1. The mean fluorescence intensity of CaR expression was 361+/−25 (mean+/−s.e.m.) units for untreated monocytes and rose to 673+/−59 following MCP-1 stimulation. Monocytic expression of CaR rose to 519+/−48 with SDF-1α a treatment.

CD14^+ monocytes = assay: Transmigration assay (monocyte chemotaxis, transwell); format: cell-based, human; details: for Interaction of chemokine with added/elevated Ca^++ on transmigration: chemokine in combination with elevated Ca^++; for Dependence of chemokine-induced chemotaxis of CD14^+ PBMC on extracellular calcium: positive concentration gradient of chemokine; for Stimulation of transmigration: monocytes; for Inhibition of monocyte chemotaxis towards a positive gradient of Ca^++ by pretreatment: Ca^++ at 3 mM
Method: (§2) Preparation of peripheral blood CD14^+ monocytes. Low density cells were isolated from human and mouse peripheral blood using Ficoll-Hypaque (Pharmacia, Piscataway, N.J.). CD14^+ monocytes were purified by sorting on FACSVantage (Becton Dickinson, San Jose, Calif.) based on CD14 expression. Purified cells were incubated in either calcium-free medium (Hanks' Balanced Salt Solution 1×, CellGro, Hermdon. VA) or Iscove's Medium 1×(Mod) (CellGro, Herndon, Va.) which contains 1.5 mM Ca++. […] Cells were incubated for up to 24 hours in 5% CO2 humidified air. Monocytes were then detached from the plate using a cell scraper. All calcium concentrations indicated in the presentation of the data represent the total Ca^++ present in the basal medium plus any added Ca^++.
(§3) Transmigration assays. Transwells (5 μm pore size polycarbonate membrane, 12 mm diameter) (Costar, Corning, N.Y.) were used to assess cell migration using an established methodology (25). The concentration of Ca^++ in IMDM (CellGro, Herndon, Va.) in the upper and lower chambers of the transwell were adjusted according to a checkerboard analysis of chemotaxis. Calcium concentrations varied from 0 mM to 6.5 mM. Purified monocytes (1×10^4) were then placed in the top chamber with 150 μl of IMDM (CellGro, Hemdon, Va.). 500 μl of the medium was added to the bottom of the well and supplemented with varying concentrations of Ca^++ or with Ca^++ plus 10 ng/ml of MCP-1, 100 ng/ml of SDF-1α or 10 ng/ml of MIP-1α (PeproTech, Rocky Hills, N.Y.). Cells were incubated at 37° C. for 3 hours. To study inhibition of chemotaxis, cells were subsequently incubated with wortmannin (1 μM for 20 minutes at 37° C.), herbimycin (1 μM for 20 minutes at 37° C.) or genistein (1 μg/ml for 20 minutes at 37° C.), before their use in transmigration assays. At the end of the experiment, cells were then harvested from the lower chamber and counted using a hemocytometer.

human CD34^+ cells = assay: In vitro assays of human CD34^+ hematopoietic progenitor cells; format: cell-based; details: in the setting of CaR activation
Text: Calcium ions effect Hematopoietic Progenitor Cells. We also assessed the effects of calcium, through its interaction with the calcium sensing receptor (CaR) using in vitro assays of human CD34^+ cells. […] Therefore, calcium participates in maintaining candidate stem cells in a primitive, undifferentiated state. […] This was accompanied by a decrease in the level of LTC-ICs in the bone marrow, but an increase in the level of CFU-Cs, with a converse increase in hematopoietic stem cells in is the peripheral blood.

CaR [2] = target: T1, CaR (Homo sapiens, UniProt P41180); assay: Cytosolic calcium changes in purified monocytes (Indo-1/AM, flow cytometry); format: cell-based; details: for Increase in cytosolic calcium: 1 μM in the presence of 1.5 mM Ca^++; for Stimulation of cytosolic calcium responses: monocytes
T1 construct: endogenous in cells; host or cells: peripheral blood CD14+ monocytes, sorted by FACS
T1 sequence (P41180 20-1078): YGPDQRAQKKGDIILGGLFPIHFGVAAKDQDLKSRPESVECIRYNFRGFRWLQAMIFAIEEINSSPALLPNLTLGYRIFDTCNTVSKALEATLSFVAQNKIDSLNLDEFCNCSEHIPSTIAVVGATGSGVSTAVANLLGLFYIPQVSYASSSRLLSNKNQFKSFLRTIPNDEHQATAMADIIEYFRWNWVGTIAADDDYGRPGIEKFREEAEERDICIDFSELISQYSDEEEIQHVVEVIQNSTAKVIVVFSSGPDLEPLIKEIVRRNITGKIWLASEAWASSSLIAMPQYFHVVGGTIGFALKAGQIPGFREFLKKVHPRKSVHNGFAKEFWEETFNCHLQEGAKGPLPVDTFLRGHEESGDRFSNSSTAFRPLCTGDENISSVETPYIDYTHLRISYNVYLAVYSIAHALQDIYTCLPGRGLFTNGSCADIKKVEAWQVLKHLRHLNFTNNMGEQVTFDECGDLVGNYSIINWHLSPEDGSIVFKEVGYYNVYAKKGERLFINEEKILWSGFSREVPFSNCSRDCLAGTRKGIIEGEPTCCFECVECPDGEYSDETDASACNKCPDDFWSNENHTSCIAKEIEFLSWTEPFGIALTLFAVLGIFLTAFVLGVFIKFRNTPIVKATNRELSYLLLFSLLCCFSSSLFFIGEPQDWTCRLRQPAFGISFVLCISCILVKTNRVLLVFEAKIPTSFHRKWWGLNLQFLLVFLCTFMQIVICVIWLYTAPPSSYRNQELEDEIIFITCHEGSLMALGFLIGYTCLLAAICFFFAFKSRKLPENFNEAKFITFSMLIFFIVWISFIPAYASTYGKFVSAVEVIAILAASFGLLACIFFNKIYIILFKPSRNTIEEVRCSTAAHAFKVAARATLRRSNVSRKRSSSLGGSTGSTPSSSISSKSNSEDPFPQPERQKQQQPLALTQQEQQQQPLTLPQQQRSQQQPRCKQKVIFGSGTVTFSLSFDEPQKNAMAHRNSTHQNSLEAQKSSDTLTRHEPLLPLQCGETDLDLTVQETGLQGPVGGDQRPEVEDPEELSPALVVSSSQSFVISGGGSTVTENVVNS
Method: as §2
Cytosolic calcium changes. Purified monocytes were loaded with Indo-1/AM (Molecular Probes, Eugene, Oreg.). Cells were collected on FACSVantage for 0.30 sec to establish a baseline emission value for Indo-1/AM. […] Data acquisition then continued for up to 5 minutes.

[3] = test system: mononuclear cells derived from neonatal CaR −/−, +/− or +/+ mice; assay: Transmigration assay with cells from CaR knockout and wild-type mice; format: cell-based, mouse; details: CaR −/−, +/− or +/+ cells
Method: as §3
CaR−/− were bred as previously described (Ho, C., et al., Nat Genet 1995, 11:389-94). To produce CaR−/− mice for this study, heterozygote mice were intercrossed. The mice studied were either 129S6/svev or 129S6/svev/Swiss Webster mixed genetic background. […]

[4] = test system: monocytes (Mac-1 positive mononuclear cells); assay: Biologic activity in vivo: subcutaneous injection, monocyte infiltration at injection site; parameters: species or system C57BL/6 mice; details: tissue excised 18 hours later, CaCl2 5.0 mM, NPS R-467 10 μM
Method: Biologic activity of ionic calcium in vivo. C57BL/6 mice (Jackson Laboratories) were injected subcutaneously at a marked, shaved spot on the abdomen with 20 μl of 5 mM CaCl2 or 20 μl of MCP-1 at a concentration of 10 ng/ml, with a combination of MCP-1 and 5 mM CaCl2 or with 10 μM NPS R-467 in PBS. Control mice were injected subcutaneously with 20 μl PBS alone. All subcutaneously injected agents contained less than 0.004 ng/ml of LPS by the limulus assay (Sigma) as previously described (Bleul, C. C., et al., J Exp Med, 1996, 184:1101-1109). Mice were sacrificed by CO2 asphyxiation 18 hours after injection, and injection sites were excised, snap-frozen and 4 μm cryosections were obtained and stained with hematoxylin and eosin. Immunocytochemistry was performed on the frozen sections using alkaline phosphatase-conjugated Mac-1 antibody (Pharmingen) as previously described and assessed by light microscopy (Bleul, C. C., et al., supra).

Molecule: C[C@@H]1C[C@@H]([C@H](O)CC2CC(=O)NC(=O)C2)C(=O)[C@@H](C)C1 [cyclohexamide, reference compound]
- Effect on the Ca^++-mediated upregulation of CCR-2 (CCR-2; inhibition of new protein synthesis): no effect

Molecule: SDF-1α
- Mean fluorescence intensity of CaR expression (mean+/−s.e.m.) (CaR [1]): 519+/−48 units
- Interaction of chemokine with added/elevated Ca^++ on transmigration (CD14^+ monocytes): no synergistic effect
- Dependence of chemokine-induced chemotaxis of CD14^+ PBMC on extracellular calcium (CD14^+ monocytes): induced migration independent of calcium
- Chemotactic responses of primitive hematopoietic cells to SDF-1α (human CD34^+ cells): attenuated

Molecule: COc1cccc([C@H](C)NCCCc2ccccc2)c1 [NPS S-467, reference compound]
- Increase in cytosolic calcium (CaR [2]): Sustained increases
- Stimulation of cytosolic calcium responses (CaR [2]): Stimulation
- Stimulation of transmigration (CD14^+ monocytes): Stimulation
- Mean fluorescent intensity -CCR-2 Mean +/− s.e.m. (CCR-2): 417 +/− 48

Molecule: MCP-1: chemokine (PeproTech), ligand of CCR-2
- Mean fluorescence intensity of CaR expression (mean+/−s.e.m.) (CaR [1]): 673+/−59 units
- Chemotaxis of mouse mononuclear cells [3]: capable of chemotaxing
- Interaction of chemokine with added/elevated Ca^++ on transmigration (CD14^+ monocytes): synergistic
- Dependence of chemokine-induced chemotaxis of CD14^+ PBMC on extracellular calcium (CD14^+ monocytes): dependent upon extracellular calcium
- Accumulation of mononuclear cells staining positive for Mac-1 at injection site [4]: Accumulation

Molecule: CO[C@H]1[C@@H](OC)C[C@H](C)[C@@H](OC)C2=CC(=O)C=C(NC(=O)/C(C)=C/C=C\[C@H](OC)[C@@H](OC(N)=O)/C(C)=C/[C@@H]1C)C2=O [herbimycin, reference compound]
- Inhibition of Ca^++-induced monocyte chemotaxis by pretreatment (CD14^+ monocytes): inhibitable
- Inhibition of monocyte chemotaxis towards a positive gradient of Ca^++ by pretreatment (CD14^+ monocytes): inhibitable

Molecule: O=c1c(-c2ccc(O)cc2)coc2cc(O)cc(O)c12 [genistein, reference compound]
- Inhibition of Ca^++-induced monocyte chemotaxis by pretreatment (CD14^+ monocytes): inhibitable
- Inhibition of monocyte chemotaxis towards a positive gradient of Ca^++ by pretreatment (CD14^+ monocytes): inhibitable

Molecule: COc1cccc([C@@H](C)NCCCc2ccccc2)c1 [NPS R-467, reference compound]
- Increase in cytosolic calcium (CaR [2]): Sustained increases
- Stimulation of cytosolic calcium responses (CaR [2]): Stimulation
- Potency of R-467 vs. S-467 in enhancing actions of high Ca^++ (cytosolic calcium, chemotaxis) (CD14^+ monocytes): greater potency
- Stimulation of transmigration (CD14^+ monocytes): Stimulation
- Accumulation of mononuclear cells staining positive for Mac-1 at injection site [4]: Accumulation
- Mean fluorescent intensity -CCR-2 Mean +/− s.e.m. (CCR-2): 460 +/− 52

Molecule: NCCCNCCCCNCCCN [spermine, reference compound]
- Stimulation of cytosolic calcium responses (CaR [2]): Stimulation
- Stimulation of transmigration (CD14^+ monocytes): Stimulation

B1: MIP-1α: chemokine (PeproTech) (protein, UniProt P10147 24-92, looked up)
C-C motif chemokine 3: SLAADTPTACCFSYTSRQIPQNFIADYFETSSQCSKPGVIFLTKRSRQVCADPSEEWVQKYVSDLELSA
- Interaction of chemokine with added/elevated Ca^++ on transmigration (CD14^+ monocytes): no synergistic effect
- Dependence of chemokine-induced chemotaxis of CD14^+ PBMC on extracellular calcium (CD14^+ monocytes): induced migration independent of calcium
